Laboratory results taken from PMC11554305, “Functional identification of soluble uric acid as an endogenous inhibitor of CD38” (eLife, 2024).
Like-named read-outs stand apart in the source and are kept apart here.

Assays:
CD38 = assay: Hydrolase and cyclase activities of human and murine CD38; type: biochemical; conditions: for Effect on hydrolase and cyclase activities of human and murine CD38: sUA precursors and metabolite, above physiological levels, Figure 2B, C and supplement 1A–C; for Effect on CD38 activity: analogs and fragments, 5 to 500 μM, recombinant hCD38, THP-1 cells, WT lung tissues, Figure 2D, E
Method: The hydrolase activity of CD38 was measured according to a previous report ([de Oliveira et al., 2018]) with minor modifications. CD38 hydrolase activity was measured using 50 μM ε-NAD^+ as a substrate in hydrolase reaction buffer (250 mM sucrose, 40 mM Tris-HCl, pH 7.4). Briefly, cells or tissues were directly homogenized in blank reaction buffer on ice, and recombinant hCD38 was diluted in blank reaction buffer for subsequent assays. The tissue homogenates were centrifuged to collect the supernatant for enzyme assays. The loading volume of enzyme was 4–30 μL, the total volume of the reaction system was 3 mL. To detect enzyme inhibition, except when specified, the ligands were directly dissolved in hydrolase reaction buffer before pH adjustment, after which, the pH was immediately adjusted to 7.4. All reaction buffers, with or without ligands, were freshly prepared before each assay. For measurement of hydrolase activity, 3 mL reaction buffer containing enzyme, ε-NAD^+, and ligands at indicated concentrations was maintained at 37°C with constant stirring.
The cyclase activity of CD38 was measured as previously described ([Higashida et al., 1999]; [Jin et al., 2007]). CD38 cyclase activity was measured using 60 μM NGD as a substrate in cyclase reaction buffer (100 mM KCl, 10 μM CaCl2, and 50 mM Tris-HCl, pH 6.6). Tissues were cut into pieces and suspended in the buffer (5 mM MgCl2, 10 mM Tris-HCl, pH 7.3) at 4°C for 30 min. Then, the suspension was homogenized on ice, and the supernatant was collected after centrifugation. To collect the crude membrane fractions, the supernatant was centrifuged at 105,000×g for 30 min. The final pellet was resuspended in 10 mM Tris-HCl solution (pH 6.6) for cyclase assay. Homogenates of THP-1 or A549 cells, and recombinant hCD38 were used directly for cyclase assays. The loading volume of enzyme was 4–20 μL, the total volume of reaction system was 3 mL. To detect enzyme inhibition, except when specified, the ligands were directly dissolved in cyclase reaction buffer before pH adjustment, after which, the pH was immediately adjusted to 6.6. All reaction buffers, with or without ligands, were freshly prepared before each assay. For measurement of cyclase activity, 3 mL reaction buffer containing enzyme, NGD, and ligands at indicated concentrations was maintained at 37°C with constant stirring.
The reaction buffer for hydrolase or cyclase assays was excited at 300 nm, and fluorescence emission was measured every second at 410 nm by Shimazu RF-6000 spectrofluorometer. Hydrolase or cyclase activity was calculated from the linear portion of the time course by fitting a linear function to the data points recorded within 5 min.
(§1) Guanosine was dissolved in DMSO and diluted in the reaction buffer for subsequent assays.
For reversibility test, recombinant hCD38 was pre-incubated for 30 min in four conditions: (1) control reaction buffer; (2) in the presence of 100 μM substrate (ε-NAD^+ or NGD); (3) 500 μM sUA; (4) both substrate and sUA. Subsequently, the enzyme was diluted 100-fold in reaction buffer in the presence or absence of 500 μM sUA for activity assays using ε-NAD^+ or NGD. Naïve THP-1 and A549 cells were incubated with RPMI-1640 medium in the presence or absence of 500 μM sUA for 2 hr. The cells were collected and homogenized in the reaction buffer on ice with or without 500 μM sUA, samples were then diluted 100-fold in reaction buffer with or without 500 μM sUA for enzyme assay. Control group was not treated with sUA in all steps; sUA group was treated with sUA in each step; sUA release group was treated with sUA prior to dilution in sUA-free buffer for enzyme assays.

[1] = Solubility and crystal precipitation in solution; type: physicochemical
Method: as §1
MSU crystals were prepared by the recrystallization of oversaturated sUA according to a previous report ([Martinon et al., 2006]). Improper preparation of sUA solution may introduce crystals to cause false-positive or false-negative results. […] In this study, the sUA solution was prepared according to an improved protocol ([Ma et al., 2020]). […] Then, sUA solution was immediately filtered by 0.2 μm filters and diluted to experimental concentration (up to 10 mg/dL, 595 μM) for cell experiments. […]

| Compound | Effect on hydrolase and cyclase activities of human and murine CD38 (CD38) | further results |
| --- | --- | --- |
| NC(=O)NC1NC(=O)NC1=O (stereo not drawn) [Allantoin, allantoin] | hardly inhibited | – |
| O=c1[nH]cc[nH]1 [1,3-DHI-2-one, 1,3-dihydroimidazol-2-one] | – | Effect on CD38 activity (CD38): did not affect CD38 activity |
| O=c1[nH]cnc2nc[nH]c12 [Hypoxanthine, hypoxanthine] | hardly inhibited | – |
| O=c1cc[nH]c(=O)[nH]1 [Uracil, uracil] | – | Effect on CD38 activity (CD38): did not affect CD38 activity |
| Nc1nc2c(ncn2[C@@H]2O[C@H](CO)[C@@H](O)[C@H]2O)c(=O)[nH]1 [Guanosine, guanosine, reference compound] | hardly inhibited | Solubility in reaction buffer ([1]; tested only at 50 μM): limited solubility |
| 8-oxoguanine [8-OG, reference compound] | – | Solubility in reaction buffer [1]: limited solubility |
| Nc1ncnc2c1ncn2[C@@H]1O[C@H](CO)[C@@H](O)[C@H]1O [Adenosine, adenosine] | hardly inhibited | – |
| O=c1[nH]c(=O)c2nc[nH]c2[nH]1 [Xanthine, xanthine] | hardly inhibited | – |
